# Measurements reported in PMC11047535, “Pharmacokinetics and Nephrotoxicity of Polymyxin MRX-8 in Rats: A Novel Agent against Resistant Gram-Negative Bacteria” (Antibiotics, 2024).
# Read-outs that look alike come from different tables or passages of the source. Positions of bridges follow the written chain, without caps; N, C: chain ends. Non-standard residues stand in square brackets, D forms with d. Residues, ends and D or L forms follow the SMILES beside them. *: point of attachment. Propanoyl(3-OH) = O=C(CCO)*; X1 = CC[C@H](C)CCCCC(=O)*; Dab = NCC[C@H](N)C(=O)O
# Assays:
# Assay type in all cases: in vivo, Sprague-Dawley (SD) rats
# [1] = Pharmacokinetics in rat plasma after single subcutaneous administration (LC-MS/MS, non-compartmental analysis); settings: for CLz (total body clearance for extravascular administration) / V (volume of distribution) / AUC(0-t) / Cmax / Tmax / MRT / half-life: LC-MS/MS, NCA, n = 5; for AUC(0-t) / Cmax / Tmax / MRT / half-life: Sprague-Dawley, sc; for MRT: read-out: MRT (mean residence time); for half-life: read-out: T1/2 (terminal half-life) (converted)
# Procedure: A Shimadzu LC-30A UHPLC system (Shimadzu, Kyoto, Japan) coupled with a Sciex QTRAP-5500 tandem mass spectrometer (Sciex, Framingham, MA, USA) was utilized. The chromatography was separated on a PHENOMENEX Kinetex®XB-C18 column (Phenomenex, Torrance, CA, USA) (100 mm × 2.1 mm, 2.6 μm) at 40 °C. The mobile phases were 2 mM of an ammonium acetate solution with 0.1% formic acid as the aqueous phase and acetonitrile solution with 0.1% formic acid as the organic phase. The gradient elution condition settings are detailed in Table S1. The mass spectrometer was operated in positive ESI mode with the following parameters: nebulizer gas (45 psi), heater gas (55 psi), curtain gas (40 psi), ion-spray voltage 4500 V, and ion source temperature of 450 °C.
# An aliquot of 40 μL of rat plasma samples, 50 μL of polymyxin B1 (IS, 20 mg/L), and 50 μL of 6% formic acid in water were mixed. Then, 300 μL of acetonitrile was added to the mixture to precipitate proteins and centrifuged at 4 °C at 13,800 g for 10 min. A 100 μL aliquot of the supernatant was transferred and mixed with 150 μL of 6% formic acid water, and 5 μL was injected into the LC-MS/MS system.
# A total of 20 wild-type male Sprague-Dawley (SD) rats weighing 280 g ± 20 g were randomly divided into 4 groups. Water and food were adequately provided. Four groups were given MRX-8 at doses of 2 mg/kg, 4 mg/kg, 6 mg/kg, and 8 mg/kg of body weight (dissolved in normal saline). 0.5 mL of blood samples were obtained from the jugular vein (without anesthesia) before and 0.25, 0.5, 1, 2, 4, 6, 8, and 24 h after dosing. Blood samples were collected into tubes with EDTA-K2 anticoagulant and centrifuged at 4 °C at 3500 g for 10 min. The plasma was collected and stored in a −70 °C refrigerator until analysis.
# In the meantime, 10 additional SD rats were divided into two groups (5 rats each) and administered PMB at 4 mg/kg and 8 mg/kg, separately. Blood samples were obtained before and 0.25, 0.5, 1, 2, 4, 6, 8, 10, 12, and 24 h after dosing. The drug administration and sample collection methods were consistent with those used for MRX-8.
# MRX-8 and MRX-8039 concentrations in plasma were measured, and mean concentration–time curves were plotted. […] After the administration, concentrations below the LLOQ were discarded.
# [2] = tested on: rats; experiment: Urinary TIMP-1 kidney injury biomarker, ELISA; settings: for urinary TIMP-1 level: saline group 2.89 ± 1.80
# Procedure: (§1) Rats’ plasma and urine were collected continuously for 24 h after being administered subcutaneously. The plasma collected for the PK assay was split for creatinine and BUN concentrations, whereas a separate experiment was conducted to measure the biomarkers. The concentrations of creatinine and BUN in rat plasma were quantified utilizing the ADVIA Chemistry XPT analyzer (Siemens Healthcare, Munich, Germany). Rat plasma samples, along with quality control samples, were prepared and processed with dedicated reagent cartridges.
# (§2) Enzyme-linked immunosorbent assay kits specific for KIM-1 (Cell Signaling Technology, Danvers, MA, USA), NGAL (Sangon Biotech, Shanghai, China), and TIMP-1 (Sangon Biotech, Shanghai, China) were utilized for analysis.
# [3] = tested on: rats; experiment: Urinary NGAL kidney injury biomarker, ELISA; settings: saline group 45.22 ± 1.46
# Procedure: as §1, §2
# [4] = tested on: rats; experiment: Creatinine in rat plasma (nephrotoxicity), ADVIA Chemistry XPT analyzer; settings: for creatinine concentration: SD rats
# Procedure: as §1
# [5] = tested on: rats; experiment: Blood urea nitrogen (BUN) in rat plasma (nephrotoxicity), ADVIA Chemistry XPT analyzer; settings: for BUN level: SD rats
# Procedure: as §1
# [6] = tested on: rats; experiment: Urinary KIM-1 kidney injury biomarker, ELISA; settings: 24 h after single s.c. 4 and 8 mg/kg, high variability within each group
# Procedure: as §1, §2
# [7] = tested on: rats; experiment: Plasma NGAL kidney injury biomarker, ELISA; settings: 24 h after single s.c. 8 mg/kg, saline group 53.03 ± 2.25
# Procedure: as §1, §2
# [8] = tested on: rat kidney tissues; experiment: Kidney histology, PAS staining and semi-quantitative scores (SQS); settings: PAS staining
# Procedure: The kidney tissues were taken 24 h after the PK sample collection. The tissues were embedded in paraffin, sliced, dewaxed into water, and washed for 5 min. […] The pathology scores refer to the paper published by Jumana et al.. Briefly, the renal histological assessment included three grades of tubular damage. Scores were assigned to grades: grade 1 = 1, grade 2 = 4, and grade 3 = 10. Kidney involvement was assessed based on the percentage of affected slices: <1% = 0, 1 to <5% = 1, 5 to <10% = 2, 10 to <20% = 3, 20 to <30% = 4, 30 to <40% = 5, and ≥40% = 6. The overall score was calculated by multiplying the percentage score with the grade score. Finally, SQS for renal histological changes was assigned: SQS 0 = no significant change (overall score: <1); SQS +1 = mild damage (overall score: 1 to <15); SQS +2 = mild-to-moderate damage (overall score: 15 to <30); SQS +3 = moderate damage (overall score: 30 to <45); SQS +4 = moderate-to-severe damage (overall score: 45 to <60); and SQS +5 = severe damage (overall score: 60). The samples in this experiment were examined by pathologist Shaojun Liu, who had no knowledge of the grouping.
# A one-way ANOVA was performed to evaluate (1) the PK parameters of T1/2, CLZ, V, and MRT at the dosages of 4, 6, and 8 mg/kg; (2) the concentrations of kidney injury biomarkers between the saline, MRX-8, and PMB groups. […]
# [9] = SD rats, single s.c. dose 4 mg/kg, plasma
# [10] = SD rats, single s.c. dose 8 mg/kg, plasma
# [11] = rat, in vivo, SD rats, single s.c. dose 4 mg/kg, plasma
# [12] = rat, in vivo, SD rats, single s.c. dose 8 mg/kg, plasma
smiles,measurement,setting,value
CC(C)C[C@@H]1NC(=O)[C@@H](Cc2ccccc2)NC(=O)[C@H](CCN)NC(=O)[C@@H](NC(=O)[C@H](CCN)NC(=O)[C@@H](NC(=O)[C@H](CCN)NC(=O)CCO)[C@@H](C)O)CCNC(=O)[C@H]([C@@H](C)O)NC(=O)[C@H](CCN)NC(=O)[C@H](CCN)NC1=O [MRX-8039] ({Propanoyl(3-OH)}-[Dab]T[Dab][Dab][Dab][dF]L[Dab][Dab]T; lactam 4-C),Tmax delay of MRX-8039 relative to MRX-8,"[1]; rat, in vivo",approximately 1.5 h
"CC[C@H](C)CCCCC(=O)N[C@@H](CCN)C(=O)N[C@H](C(=O)N[C@@H](CCN)C(=O)N[C@H]1CCNC(=O)[C@H]([C@@H](C)O)NC(=O)[C@H](CCN)NC(=O)[C@H](CCN)NC(=O)[C@H](CC(C)C)NC(=O)[C@@H](Cc2ccccc2)NC(=O)[C@H](CCN)NC1=O)[C@@H](C)O [PMB, polymyxin B] (X1-[Dab]T[Dab][Dab][Dab][dF]L[Dab][Dab]T; lactam 4-C)",urinary TIMP-1 level,[2]; 24 h after single s.c. 4 mg/kg,20.65 ± 12.44 ng/mL
same,urinary TIMP-1 level,[2]; 24 h after single s.c. 8 mg/kg,20.54 ± 7.82 ng/mL
same,change of urinary TIMP-1 compared to the saline group,[2]; 24 h after single s.c. 4 and 8 mg/kg,increased significantly
same,urinary NGAL level,[3]; 24 h after single s.c. 4 mg/kg,50.34 ± 2.70 ng/mL
same,urinary NGAL level,[3]; 24 h after single s.c. 8 mg/kg,56.95 ± 6.01 ng/mL
same,creatinine concentration,"[4]; 8 h after single s.c. 4 mg/kg, saline group 21.25 ± 2.22",103.86 ± 12.66 µmol/L
same,creatinine concentration,"[4]; 8 h after single s.c. 8 mg/kg, saline group 21.25 ± 2.22",85.61 ± 17.27 µmol/L
same,change of blood creatinine levels compared to the saline group,"[4]; 8 h and 24 h after single s.c. dose (MRX-8 2 to 8 mg/kg; PMB 4 and 8 mg/kg), one-way ANOVA",significant increase
same,creatinine concentration,"[4]; 24 h after single s.c. 4 mg/kg, saline group 22.5 ± 2.52",169.79 ± 61.93 µmol/L
same,creatinine concentration,"[4]; 24 h after single s.c. 8 mg/kg, saline group 22.5 ± 2.52",110.81 ± 67.3 µmol/L
same,BUN level,"[5]; 8 h after single s.c. 4 mg/kg, saline group 5.52 ± 0.56",19.58 ± 3.05 mmol/L
same,BUN level,[5]; 8 h after single s.c. 8 mg/kg,15.36 ± 3.05 mmol/L
same,change of BUN levels compared to the saline group,"[5]; 8 h and 24 h after single s.c. dose (PMB 4 and 8 mg/kg; MRX-8, except significant increase at 4 mg/kg at 8 h)",significant increase
same,BUN level,[5]; 24 h after single s.c. 4 mg/kg,44.3 ± 1.12 mmol/L
same,BUN level,[5]; 24 h after single s.c. 8 mg/kg,54.85 ± 11.81 mmol/L
same,change of urine KIM-1 levels compared to the saline group,[6],No statistically significant differences
same,NGAL level in plasma,[7],61.14 ± 2.52 ng/mL
same,histological findings in kidney tissues,[8]; 24 h post single s.c. dose of 8 mg/kg,"more severe renal damage, including tubular dilation, cellular necrosis, and tubular formation"
same,histological findings in kidney tissues,"[8]; 24 h post single s.c. dose, compared to the saline group",mild focal tubular cell shedding and cytoplasmic attenuation
same,"Tmax (absorption, as read from Figure 3)","[1]; SD rats, s.c. administration, plasma, range over dose groups",4~6 h
same,CLz (total body clearance for extravascular administration),[1]; [9],4 ± 1 mL/min/kg
same,V (volume of distribution),[1]; [9],1.52 ± 0.27 L/kg
same,CLz (total body clearance for extravascular administration),[1]; [10],4.17 ± 0.33 mL/min/kg
same,V (volume of distribution),[1]; [10],1.49 ± 0.31 L/kg
same,AUC(0-t),"[1]; rat, in vivo, 4 mg/kg, SD rats, single s.c. dose 4 mg/kg, plasma, read-out: AUC0–8 h",9550 ± 2540 ng·h/mL
same,AUC(0-t),"[1]; rat, in vivo, 4 mg/kg, SD rats, single s.c. dose 4 mg/kg, plasma, read-out: AUC0–24 h",17100 ± 3900 ng·h/mL
same,AUC(0-t),"[1]; rat, in vivo, 8 mg/kg, SD rats, single s.c. dose 8 mg/kg, plasma, read-out: AUC0–8 h",17900 ± 3050 ng·h/mL
same,AUC(0-t),"[1]; rat, in vivo, 8 mg/kg, SD rats, single s.c. dose 8 mg/kg, plasma, read-out: AUC0–24 h",31200 ± 3140 ng·h/mL
same,Cmax,[1]; [11],1770 ± 510 ng/mL
same,Tmax,[1]; [11],4.8 ± 1.1 h
same,MRT,[1]; [11],8.66 ± 0.7 h
same,half-life,[1]; [11],4.55 ± 0.56 h
same,Cmax,[1]; [12],3150 ± 440 ng/mL
same,Tmax,[1]; [12],6 h
same,MRT,[1]; [12],8.23 ± 0.71 h
same,half-life,[1]; [12],4.09 ± 0.44 h
